Data on three sequences can be found in article PMC9462664, “Preparation and identification of anti-breast cancer cells peptides released from yak milk casein” (Frontiers in Nutrition, 2022).

No end group written: not given here.

Data set [1] deals with pepsin and trypsin. Description: Stability against simulated gastrointestinal digestion. The conditions noted are these: peptide 5 mg/mL, pepsin pH 1.2, 37°C, 2 h, then trypsin pH 8, 37°C, enzyme:peptide 1:100 (w/w), RP-HPLC, new peaks digested vs undigested. Type of data set: in vitro ADME. The protocol:
Stability of peptides against simulated gastrointestinal digestion was performed according to the method outlined previously with slight modification ([19]). Briefly, peptide solution (5 mg/mL) was digested by pepsin (pH 1.2, 37°C) for 2 h. Then the pH of the resulting solution was altered to eight with NaOH (1.0°M) to inactivate pepsin, and the peptides solution was further digested by trypsin (2 h, 37°C). Finally, trypsin was inactivated by a hot water bath (95°C, 10 min). The ratio of enzyme to peptide was 1:100 (w/w) in the two digesting processes. The digested and undigested samples were loaded into HPLC (1260 Infinity, Agilent, Santa Clara, CA, United States), respectively, to evaluate the stability of the peptides. […]

Data set [2] concerns MCF7 cells. Type of data set: cell-based. The protocol: (§1) The culture medium of MDA-MB-231 and MCF7 cells were DMEM containing 10% FBS and 1% AAC. The culture medium of MCF10A was DMEM/F12 containing CT (100°ng/mL), EGF (20°ng/mL), HS (5%), hydrocortisone (0.5°μg/mL), and insulin (10°ug/mL). All the cells were incubated using an incubator (MCO-20AIC, SANYO, Japan) with 5% CO2 and 95% humidity at 37°C.
(§2) Cell activity inhibition was conducted using a CCK8 kit according to the procedure offered by the manufacturer. The trypsinized cells were transferred into the 96-well plate (8,000 cells/well) and cultured for 24 h, then they were incubated with PBS (Control), YMCH (250°μg/mL) or synthetic peptides (0, 62.5, 125, 250, 500, and 1,000°μg/mL) for 48 h or 24–72 h. The CCK8 agent (20°μL) was pipetted into the well followed by incubation (37 °C, 4 h). The absorbance of the medium was acquired at 450 nm using a microplate reader (Multiskan Spectrum, Thermo, Waltham, MA, United States). Finally, according to the below formulae, the cell viability and its inhibition rate were calculated.
(§3) Cellviability(%)=Absorbanceofmediumfromthetreatmentgroup/Absorbanceofmediumfromthecontrolgroup×100
(§4) Inhibitionrateofcellviability(%)=(1Absorbanceofmediumfromthetreatmentgroup/Absorbanceofmediumfromthecontrolgroup)×100

For data set [3], the system named is MDA-MB-231 cells. Type of data set: cell-based. The protocol: as §1, §2, §3, §4
The subject of data set [4] is MCF7 cells. Description: Cell cycle determination (PI, flow cytometry). Conditions: 250 μg/mL, 48 h. The class given is cell-based. The method, then: (§5) Cell cycle determination was conducted using a cell cycle kit according to its instructions. Trypsinized cells (MDA-MB-231 or MCF7) were pipetted into the 6-well plate and cultured. When cells confluence reached 50%, peptides were added to the wells, and the treatment lasted 48 h. The cells were harvested and washed with PBS. After being fixed by cold 75% ethanol, cells were treated with RNase A followed by incubation with PI. Finally, the cell cycles of samples were measured by a BD flow cytometer (FACS101, Becton, Dickinson and Company, Franklin Lakes, NJ, United States).
(§6) FIGURE 6 TPVVVPPFL elicited cell arrest of mammary carcinoma cells. MCF7 cells were incubated with TPVVVPPFL for 48 h at the concentration of 250°μg/mL. MDA-MB-231 cells were incubated with TPVVVPPFL for 48 h at the concentration of 500°μg/mL. The cell cycle distributions were analyzed using flow cytometry after treatment with PI.

Data set [5] has as its system MDA-MB-231 cells. Put plainly: Cell cycle determination (PI, flow cytometry). Type of data set: cell-based. The conditions noted are these: 500 μg/mL, 48 h. The method, then:
as §5, §6

For data set [6], the system named is MCF7 cells. Put plainly: Cell apoptosis determination (Annexin V/PI, flow cytometry). The class given is cell-based. The conditions noted are these: 250 μg/mL, 48 h, Annexin-V and PI, mean ± SD. The method, then:
(§7) Cell apoptosis determination was conducted by Annexin V staining of externalized phosphatidylserine in apoptotic cells using a cell apoptosis kit. Then the proportion of the apoptotic cells was analyzed by a BD flow cytometry (FACS101, Becton, Dickinson and Company, Franklin Lakes, NJ, United States).
(§8) FIGURE 7 TPVVVPPFL induced morphology alteration (A) and apoptosis of mammary carcinoma cells (B). MCF7 and MDA-MB-231 cells were incubated with TPVVVPPFL for 48 h at the concentration of 250 and 500°μg/mL, respectively. The image of the two cells was acquired by the inverted microscope, and the apoptotic cells were measured using a flow cytometry after treatment with Annexin-V and PI.

The subject of data set [7] is MDA-MB-231 cells. Described as above. The class given is cell-based. Conditions: 500 μg/mL, 48 h, Annexin-V and PI, mean ± SD. The protocol: as §7, §8

On to NQFLPYPY [NQFLPYPY], for which the “stability against simulated gastrointestinal digestion” value (“stability” for short) in data set [1] is “stable in the simulated digestion condition”.

With VAPFPEVFGK [VAPFPEVFGK], in data set [1], the “stability” value was “hydrolyzed”.

On to TPVVVPPFL [TPVVVPPFL], for which the results for the IC50 in data set [2] and in data set [3] were 250 µg/mL and 500 µg/mL, respectively. The cell cycle arrest result in data set [4] is on record as “G2/M arrest”; in data set [5], “S arrest”. The apoptosis rate in data set [6] stood at 48.37 ± 2.74%; in data set [7] it was 35.11 ± 2.95%. For the same sequence, the “stability” value in data set [1] is recorded as “stable in the simulated digestion condition”.
